Experimental data taken from patent US9840498B2, “Substituted quinazolin-4-one derivatives” (NOVARTIS AG, priority 2013, dated 2017).

Key:
[1] = target: PI 3-Kinase Gamma (Homo sapiens (Human), UniProt P48736); assay: Cellular U937 AKT assay for PI 3-kinase gamma; format: cell-based; settings: U937 cells, MIP1α-stimulated AKT phosphorylation, read-out: Cell PI3K gamma IC50
Description: The U937 monocyte cell line is maintained in a basal medium of RPMI 1640 supplemented with 10% heat inactivated FCS, 100 U/ml Penicillin, 100 ug/ml streptomycin and 2 mM L-glutamine (Invitrogen). U937 suspension culture is maintained by seeding cells at a density of 0.125×10^6 cells per ml in fresh medium every three or four days. Cells are incubated at 37° C., 5% CO2. […] Before beginning the cell manipulations described below, the MSD (Meso Scale Discovery) assay plate is blocked by addition of 150 ul/well blocking buffer supplied and incubated with shaking for a minimum of one hour at room temperature. All steps of the assay must be performed quickly, with accurately timed incubation periods and observing temperature controls where indicated. […] Falcon tube, counted and centrifuged for eight minutes at 300 g at room temperature. Supernatant is aspirated, the cell pellet resuspended and washed once in HBSS (Hank's Balanced Salt Solution) by centrifugation for eight minutes at 300 g at room temperature. The cell pellet is resuspended in HBSS to a concentration of 4×10^6 per ml, and 100 μL of cell suspension added to each well of a flat-bottomed 96-well tissue culture plate. Assay plates are incubated for 1.5 hours at 37° C., 5% CO2 to allow background AKT phosphorylation to reduce before the compound stimulation step. […] Compound concentrations at this stage are 4-times the final concentration required in the assay plate. Cells are stimulated with compound or HBSS 0.8% DMSO by direct transfer of 50 ul/well from the compound dilution plate. The assay plate containing compound-treated cells is then incubated for 30 minutes at 37° C. A standard plate layout is used for all experiments. Compound-treated cells, in addition to positive control wells (“max MIP1α”), are stimulated with 50 μL per well of 40 ng/ml MIP1α (R&D Systems catalogue number 270-LD, lyophilized stock reconstituted to 50 μg/ml with PBS 0.1% BSA). Negative control wells (“min HBSS”), are stimulated with 50 μl/well of HBSS in the absence of MIP1α. […] Cells are incubated with MIP1α for 3 minutes, at 37° C., 5% CO2. After the three minute stimulation period, the assay plate is kept ice cold at all times. Assay plates are centrifuged for 2 minutes at 300 g, 4° C. and supernatant is removed by gently inverting, and then blotting the plate on tissue. Cells are then washed by gentle addition of 150 μL/well of ice cold HBSS and centrifugation at 300 g, for 5 minutes at 4° C. Supernatant is aspirated and the plate blotted as described above. The plate is placed on ice and cells are immediately treated with 35 μL per well of ice cold lysis buffer, prepared according to the kit instructions (per assay plate, to 5 ml of Tris lysis buffer add 100 μl of 50× protease inhibitor solution and 50 μl of each 100× phosphatase inhibitor solutions I and II). Plates are incubated on ice for 20 minutes before centrifugation at 841 g for 5 minutes, 4° C. Block buffer is aspirated from the MSD plate, and the plate washed four times with 300 μl/well Tris wash buffer. 25 μL of cell lysate is then transferred from the assay plate to the washed MSD plate which is sealed and incubated at room temperature for one hour with shaking. The plate is washed four times with 300 μL per well of Tris wash buffer before addition of 25 μL per well of sulfo-tag anti-total AKT/pAKT detection antibody (60 μl of 50× antibody stock is diluted in 1 ml block buffer mixed with 2 ml wash buffer) and incubated at room temperature for one hour with shaking. The plate is washed four times with 300 μl per well of Tris wash buffer and 150 μl per well of Read buffer is added, taking care to avoid the introduction of bubbles. The plate is immediately read using an MSD SECTOR Imager 6000. Results are exported in Excel and the percentage of phosphorylated AKT is calculated using the equation: % Phosphoprotein=((2*Phospho signal)/(Phospho signal+Total signal))*100. […]

[2] = target: human phosphoinositide-3 kinase (PI3K) alpha (Homo sapiens (Human), UniProt P42336); assay: PI3K-mediated Akt 1/2 (S473) phosphorylation in Rat-1 cells overexpressing PI3K alpha; format: cell-based, rat cells expressing human PI3K alpha; settings: cellular assay, p-AKT(Ser473), read-out: Cell PI3K alpha IC50
human phosphoinositide-3 kinase (PI3K) alpha, sequence (P42336 whole entry): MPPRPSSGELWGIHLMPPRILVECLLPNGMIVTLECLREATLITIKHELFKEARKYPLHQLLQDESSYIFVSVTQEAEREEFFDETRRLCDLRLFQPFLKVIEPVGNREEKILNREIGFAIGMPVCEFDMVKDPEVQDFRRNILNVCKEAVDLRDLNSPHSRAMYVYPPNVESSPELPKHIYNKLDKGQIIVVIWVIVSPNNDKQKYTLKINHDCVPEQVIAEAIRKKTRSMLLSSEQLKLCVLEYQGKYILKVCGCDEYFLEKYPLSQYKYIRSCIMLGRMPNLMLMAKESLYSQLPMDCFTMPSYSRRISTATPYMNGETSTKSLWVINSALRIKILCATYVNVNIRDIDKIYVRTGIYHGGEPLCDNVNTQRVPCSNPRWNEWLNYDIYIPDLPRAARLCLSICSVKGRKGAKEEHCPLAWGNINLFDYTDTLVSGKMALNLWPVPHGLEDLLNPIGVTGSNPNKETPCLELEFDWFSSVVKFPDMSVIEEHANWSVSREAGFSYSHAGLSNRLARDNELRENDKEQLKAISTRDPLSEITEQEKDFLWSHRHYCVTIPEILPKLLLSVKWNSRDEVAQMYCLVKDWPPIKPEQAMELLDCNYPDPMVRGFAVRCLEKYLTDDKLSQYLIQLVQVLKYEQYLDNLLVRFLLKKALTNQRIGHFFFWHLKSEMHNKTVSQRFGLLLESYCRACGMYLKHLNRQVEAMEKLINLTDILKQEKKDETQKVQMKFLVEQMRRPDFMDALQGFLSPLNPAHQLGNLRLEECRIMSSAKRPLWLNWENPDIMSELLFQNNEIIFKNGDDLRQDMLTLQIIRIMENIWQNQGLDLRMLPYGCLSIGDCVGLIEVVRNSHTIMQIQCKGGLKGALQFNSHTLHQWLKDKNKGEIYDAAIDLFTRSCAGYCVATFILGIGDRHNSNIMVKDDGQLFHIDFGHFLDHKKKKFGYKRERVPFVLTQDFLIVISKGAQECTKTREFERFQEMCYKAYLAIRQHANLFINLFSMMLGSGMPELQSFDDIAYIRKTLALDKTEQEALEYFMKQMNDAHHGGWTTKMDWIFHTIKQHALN
human phosphoinositide-3 kinase (PI3K) alpha, sequence (Q63787 whole entry partner): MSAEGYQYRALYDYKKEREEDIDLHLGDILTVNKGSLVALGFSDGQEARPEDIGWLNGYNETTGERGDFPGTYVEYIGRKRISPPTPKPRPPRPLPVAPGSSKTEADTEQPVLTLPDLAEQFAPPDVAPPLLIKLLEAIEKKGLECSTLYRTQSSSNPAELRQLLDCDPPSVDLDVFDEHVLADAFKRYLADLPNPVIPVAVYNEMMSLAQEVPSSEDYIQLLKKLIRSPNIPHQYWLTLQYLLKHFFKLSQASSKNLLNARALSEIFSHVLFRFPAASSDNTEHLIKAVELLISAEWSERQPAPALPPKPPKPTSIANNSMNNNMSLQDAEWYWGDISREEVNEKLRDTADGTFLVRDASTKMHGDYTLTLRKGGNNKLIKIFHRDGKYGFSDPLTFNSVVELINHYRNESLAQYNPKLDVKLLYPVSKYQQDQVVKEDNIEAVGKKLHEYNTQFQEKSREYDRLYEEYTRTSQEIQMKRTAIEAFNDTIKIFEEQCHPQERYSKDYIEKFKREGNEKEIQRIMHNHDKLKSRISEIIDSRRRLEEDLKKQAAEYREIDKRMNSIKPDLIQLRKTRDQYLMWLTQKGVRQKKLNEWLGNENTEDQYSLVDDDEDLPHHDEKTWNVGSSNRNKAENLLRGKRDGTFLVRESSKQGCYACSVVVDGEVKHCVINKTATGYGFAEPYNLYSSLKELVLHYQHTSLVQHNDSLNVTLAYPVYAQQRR
Description: (§1) 2.1 Phosphoinositide-3 kinase (PI3K)-Mediated Akt 1/2 (S473) Phosphorylation in Rat-1 Cells
(§2) Rat-1 cells stably overexpressing a myristoylated form of the catalytic subunit of human phosphoinositide-3 kinase (PI3K) alpha, beta or delta were plated in 384-well plates at a density of 7500 (PI3K alpha), 6200 (PI3K beta), or 4000 (PI3K delta) cells in 30 ul complete growth medium (Dulbecco's modified Eagle's medium (DMEM high glucose) supplemented with 10% (v/v) fetal bovine serum, 1% (v/v) MEM non essential amino acids, 10 mM HEPES, 2 mM L-glutamine, 10 μg/mL puromycin and 1% (v/v) Penicillin/Streptomycin) and were incubated at […]/5% CO2/95% humidity for 24 h. Compounds were diluted in 384-well compound plates (compound master plates), to obtain 8-point serial dilutions for 40 test compounds in 90% DMSO, as well as 4 reference compounds plus 16 high controls and 16 low (inhibited) controls. Predilution plates were prepared by dispensing pipetting 250 nl of compound solutions into 384-well polypropylen plates (daugther plates), using a Hummingwell nanoliter dispenser. Compounds were prediluted by the addition of 49.75 ul complete growth medium. 10 ul of prediluted compound solution were transferred to the cell plate using a 384-well pipettor, resulting in a final DMSO concentration of 0.11%. Cells were incubated for 1 h at […]/5% CO2/95% humidity. The supernatant was removed, the cells were lysed in 20 ul of lysis buffer for AlphaScreen® SureFire® detection.
(§3) For detection of p-AKT(Ser473), the SureFire® p-Akt 1/2 (Ser473) Assay Kit (PerkinElmer, U.S.A.) was used. 5 ul of cell lysate was transferred to 384-well low volume Proxiplates for detection using a 384-well pipettor. Addition of AlphaScreen® SureFire® reagents was done according to the manufacturer's protocol. First, 5 ul of reaction buffer plus activation buffer mix containing AlphaScreen® acceptor beads was added, the plate was sealed, and incubated on a plate shaker for 2 hours at room temperature. Second, 2 ul of dilution buffer containing AlphaScreen® donor beads was added, and the plate was incubated on plate shaker as above for a further 2 hours. The plate was read on an AlphaScreen® compatible plate reader, using standard AlphaScreen® settings. Alternatively, p-AKT(Ser473) was detected with the CisBio HTRF Assay Kit: As positive control, 0.9 mM of 1-(3-(trifluoromethyl)-4-(piperazin-1-yl)phenyl)-8-(6-methoxypyridin-3-yl)-3-methyl-1H-imidazo[4,5-c]quinolin-2(3H)-one maleic acid salt in 90% (v/v) DMSO was added to the compound master plate. For compound testing, the cells were seeded at a density of 4000 (Rat-1_PI3Kdelta), 8000 (Rat-1_PI3Kalpha), or 6500 (Rat-1_PI3Kbeta) cells in 30 ul complete growth medium into 384-well plates, with a plastic surface promoting the adhesion of cells and their growth (assay plates) and were grown at 37° C./5% CO2/90% humidity for 24 h. Some 10 ul of the compound predilutions from the daughter plate were then transferred to the cells. After treatment with compound for 1 h, medium was removed and cells were lysed by the addition of 20 ul lysis buffer supplemented with blocking buffer. Detection of p-AKT(Ser473) was performed with the HTRF pAKT (Ser473) assay kit according to the manufacturer's instructions using 16 ul of cell lysate in a total detection volume of 20 ul.

[3] = target: human phosphoinositide-3 kinase (PI3K) delta (Homo sapiens (Human), UniProt O00329); assay: PI3K-mediated Akt 1/2 (S473) phosphorylation in Rat-1 cells overexpressing PI3K delta; format: cell-based; settings: cellular assay, p-AKT(Ser473), read-out: Cell PI3K delta IC50
human phosphoinositide-3 kinase (PI3K) delta, sequence (O00329 whole entry): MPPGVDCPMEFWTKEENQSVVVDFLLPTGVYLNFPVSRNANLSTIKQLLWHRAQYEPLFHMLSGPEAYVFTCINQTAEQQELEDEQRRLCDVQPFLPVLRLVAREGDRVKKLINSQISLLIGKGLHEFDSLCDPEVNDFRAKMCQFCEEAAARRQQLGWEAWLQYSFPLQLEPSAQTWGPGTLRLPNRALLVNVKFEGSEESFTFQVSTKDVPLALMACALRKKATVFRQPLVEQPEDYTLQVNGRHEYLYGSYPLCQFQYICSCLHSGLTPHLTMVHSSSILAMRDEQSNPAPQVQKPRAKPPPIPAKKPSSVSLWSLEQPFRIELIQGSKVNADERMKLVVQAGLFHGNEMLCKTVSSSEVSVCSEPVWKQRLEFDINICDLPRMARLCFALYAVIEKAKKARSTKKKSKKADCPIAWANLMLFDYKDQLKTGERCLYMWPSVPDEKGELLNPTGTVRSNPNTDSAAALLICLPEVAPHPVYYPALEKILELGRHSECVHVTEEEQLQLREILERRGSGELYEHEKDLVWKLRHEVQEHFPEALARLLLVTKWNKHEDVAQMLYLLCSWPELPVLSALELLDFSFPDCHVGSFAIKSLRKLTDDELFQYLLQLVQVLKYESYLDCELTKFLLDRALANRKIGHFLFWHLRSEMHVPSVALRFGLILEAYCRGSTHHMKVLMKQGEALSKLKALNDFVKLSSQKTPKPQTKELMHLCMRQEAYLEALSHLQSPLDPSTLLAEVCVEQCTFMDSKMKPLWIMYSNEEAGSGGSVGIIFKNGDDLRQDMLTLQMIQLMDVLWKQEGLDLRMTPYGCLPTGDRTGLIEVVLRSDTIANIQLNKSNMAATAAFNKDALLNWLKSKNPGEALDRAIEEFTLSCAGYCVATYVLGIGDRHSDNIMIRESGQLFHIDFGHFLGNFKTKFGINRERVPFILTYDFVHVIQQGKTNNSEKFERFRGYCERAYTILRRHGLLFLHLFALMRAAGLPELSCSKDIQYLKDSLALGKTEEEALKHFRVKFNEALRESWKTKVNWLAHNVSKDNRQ
human phosphoinositide-3 kinase (PI3K) delta, sequence (Q63787 whole entry partner): as the sequence (Q63787 whole entry partner) above
Description: as §1, §2, §3

PI 3-Kinase Gamma, sequence (P48736 whole entry): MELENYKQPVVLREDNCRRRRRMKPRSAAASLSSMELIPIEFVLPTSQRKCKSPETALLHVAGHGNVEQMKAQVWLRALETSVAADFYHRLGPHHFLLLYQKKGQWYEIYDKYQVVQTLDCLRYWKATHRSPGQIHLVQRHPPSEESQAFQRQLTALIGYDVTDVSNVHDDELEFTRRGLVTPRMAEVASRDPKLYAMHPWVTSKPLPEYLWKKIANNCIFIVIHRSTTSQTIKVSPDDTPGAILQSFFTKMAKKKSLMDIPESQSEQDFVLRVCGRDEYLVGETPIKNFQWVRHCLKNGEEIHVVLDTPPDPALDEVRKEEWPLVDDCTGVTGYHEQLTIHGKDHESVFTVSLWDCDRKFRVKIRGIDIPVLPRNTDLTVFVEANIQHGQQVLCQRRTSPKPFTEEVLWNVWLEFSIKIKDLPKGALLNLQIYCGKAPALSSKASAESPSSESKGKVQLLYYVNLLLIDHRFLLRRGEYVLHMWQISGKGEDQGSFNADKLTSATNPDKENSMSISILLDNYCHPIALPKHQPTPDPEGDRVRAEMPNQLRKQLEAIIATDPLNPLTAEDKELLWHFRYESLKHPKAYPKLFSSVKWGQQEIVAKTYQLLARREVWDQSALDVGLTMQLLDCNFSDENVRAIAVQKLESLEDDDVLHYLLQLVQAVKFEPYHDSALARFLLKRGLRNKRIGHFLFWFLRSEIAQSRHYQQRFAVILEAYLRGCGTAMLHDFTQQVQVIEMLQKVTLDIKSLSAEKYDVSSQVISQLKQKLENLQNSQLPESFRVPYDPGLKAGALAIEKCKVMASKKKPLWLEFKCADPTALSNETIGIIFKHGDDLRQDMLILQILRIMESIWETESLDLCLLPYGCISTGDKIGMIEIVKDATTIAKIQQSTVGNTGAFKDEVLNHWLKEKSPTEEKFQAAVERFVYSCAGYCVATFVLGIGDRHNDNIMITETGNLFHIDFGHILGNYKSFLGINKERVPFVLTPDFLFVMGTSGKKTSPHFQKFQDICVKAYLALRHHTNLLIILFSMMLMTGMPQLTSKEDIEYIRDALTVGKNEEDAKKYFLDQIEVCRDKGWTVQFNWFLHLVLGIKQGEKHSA

IC50 [1]: 11 nM | IC50 [2]: > 10000 nM | IC50 [3]: 13 nM
SMILES: Cc1ncc(-c2cccc3nc([C@@H]4C[C@H](O)CN4c4nc(N)nc(C)c4C#N)n(-c4ccccc4)c(=O)c23)cn1 [Example 23, 2-Amino-4-((2S,4S)-4-hydroxy-2-(5-(2-methylpyrimidin-5-yl)-4-oxo-3-phenyl-3,4-dihydroquinazolin-2-yl)pyrrolidin-1-yl)-6-methylpyrimidine-5-carbonitrile]
